Data on two molecules can be found in patent USRE49556E1, “Compounds and compositions as protein kinase inhibitors” (Array BioPharma Inc., priority 2009, dated 2023).

The subject of one data set is SW620 cells. Briefly: SW620 cell viability assay (Cell Titer Glo). It counts as cell-based. The following applies: 9 serial dilutions between 10 and 0.002 μM, without MEK inhibitor. On the procedure:
The present invention also includes combinations of the BRaf inhibitors disclosed in this invention with other agents. In particular, the present invention provides for combinations with MEK1/2 inhibitors. FIG. 1 illustrates that the addition of a MEK small molecule inhibitor can reverse the induced ERK signaling, cell growth and transformation caused by a Raf small molecule inhibitor.
SW620 cells were seeded in 1640 RPMI+10% FBS at a density of 1500 cells per 96-well in black walled, clear bottom tissue culture treated plates. Test compounds were serially diluted in DMSO then added to the cells (final DMSO concentration of 0.1%) and incubated at 37° C. and 5% CO2 for 4 days. To measure cell viability, cell plates were brought to room temperature, culture media was removed, and 200 µl of Cell Titer-Glo reagent (Promega, kit components mixed as per the manufacturer's protocol then diluted 1:2 with growth media) was added to each well. Plates were shaken for 5 minutes, then incubated at room temperature for 5 minutes, and the luminescence was measured (Trilux, Perkin Elmer).

The subject of a further data set is A375 cells. Briefly: A375 Cellular Proliferation Assay (A375 CP). The following applies: A375-luc cells, 2 days. It counts as cell-based. On the procedure: A375-luc cells engineered to express luciferase are plated to 384-well white clear bottom plates as 1,500 cells/50 μl/well in DMEM containing 10% FBS. Compounds of the invention dissolved in 100% DMSO at appropriate concentrations are transferred to the cells by a robotic Pin Tool (100 nl). The cells are incubated for 2 days at […], then 25 μl of BrightGlo™ is added to each well and the plates are read by luminescence. The concentration of each compound for 50% inhibition (IC50) was calculated by non-linear regression using XL Fit data analysis software.

The nature of data set [1]: In vivo pharmacokinetics assay in mouse. The method, then: Full pharmacokinetics study: Male Balb/c mice (n=3, body weights 22-25 g) or male Wistar rats (n=3, body weights 250-300 g) were administered the test compound intravenously via the lateral tail vein or orally via gavage. […] Six blood samples of 50 μL each were collected serially for 24 h after dosing. The blood samples were centrifuged to separate the plasma. Plasma samples were analyzed and quantified by LC-MS/MS.
Rapid pharmacokinetics study: Male Balb/c mice (n=3, body weights 22-25 g) or male Wistar rats (n=3, body weights 250-300 g) were administered the test compound intravenously (IV) via the lateral tail vein or orally (PO) via gavage. […] Six blood samples of 50 μL each were collected serially for 24 h after dosing. Blood samples were centrifuged and plasma separated and pooled across the three animals at each time point per dose route. Plasma samples were analyzed and quantified by LC-MS/MS.
For both full and rapid pharmacokinetics studies, the following parameters were calculated by non-compartmental regression analysis using Winnonlin 5.0 software (Pharsight, Mountain View, Calif., USA): plasma clearance (Cl), plasma maximum concentration (Cmax), plasma area-under-the-concentration-time-curve (AUC0-inf) and percent oral bioavailability (F %).

Data set [2] in a line: Liver microsomal clearance assay, human. Conditions: extraction ratio, human liver microsomes, 1 μM compound. It counts as in vitro ADME. The method, then:
(§1) Liver Microsomal Clearance Assay
(§2) The in vitro microsomal clearance assay is designed to assess potential risks associated with hepatic metabolic stability of compounds. The test compound (1 μM) was incubated with liver microsomes (0.5 mg/mL) from different species (mouse, rat, monkey, dog and human) and NADPH (1 mM) in 100 mM potassium phosphate buffer at 37° C. At specific reaction time points (0, 5, 10 and 30 minutes), reaction aliquots were removed and reactions were terminated by addition of ice cold acetonitrile containing mass spectrometry internal standard. The samples were centrifuged and the supernatants were analyzed by LC-MS/MS. In vitro metabolic half-life (t1/2, min) and intrinsic clearance (CLint, μL/min/mg) are based on the rate and extent of metabolism of the test compound as determined by the disappearance of the parent compound from the reaction mixture. These values may be scaled to predict hepatic metabolic clearance rate (CLh, mL/min/kg) and extraction ratio (ER, expressed as a ratio of the predicted hepatic metabolic clearance to hepatic blood flow in that species). In general, compounds with high predictedCLint or ER in vitro are considered to be at high risk for exposure-limiting metabolism in vivo.

A short description of data set [3]: Liver microsomal clearance assay, mouse. It counts as in vitro ADME. The following applies: extraction ratio, mouse liver microsomes, 1 μM compound. The method, then: as §1, §2

As to `COC(=O)N[C@@H](C)CNc1nccc(-c2cn(C(C)C)nc2-c2cc(Cl)cc(NS(C)(=O)=O)c2F)n1` [Compound 9, Methyl N-[(2S)-1-({4-[3-(5-chloro-2-fluoro-3-methanesulfonamidophenyl)-1-(propan-2-yl)-1H-pyrazol-4-yl]pyrimidin-2-yl}amino)propan-2-yl]carbamate], the “cellular proliferation (Cell Titer Glo, FIG. 1)” value in the data set with SW620 cells is on record as “induction in cellular proliferation”.
In the case of “methyl N-[(2S)-1-[(4-{3-[2-fluoro-3-(propane-1-sulfonamido)phenyl]-1-(propan-2-yl)-1H-pyrazol-4-yl}pyrimidin-2-yl)amino]propan-2-yl]carbamate [Compound 3]”, the IC50 with A375 cells was determined as 2 nM. Besides, in data set [1] (PO 5 mg/kg, n = 1), the Cmax came to 70 nM and the “PO AUC” value is on record as 0.20 (n = 1) hrs*μM. Moreover, the F in data set [1] (PO/IV 5/2 mg/kg, n = 1) is on record as 6 (n = 1) %. The Cl in data set [1] (plasma clearance, IV 2 mg/kg) is listed as 51 (n = 1) mL/min/kg. Further, the “ER Human” value in data set [2] is given as 0.69. Also, in data set [3], the “ER Mouse” value is 0.85.
